Test results from ChEMBL document CHEMBL4145446, “Development of tacrine-bifendate conjugates with improved cholinesterase inhibitory and pro-cognitive efficacy and reduced hepatotoxicity” (Eur J Med Chem, 2018).
Activity calls are given as the source filed them. No cut-off for these calls is given here.

Legend:
[1] = Cytotoxicity against rat PC12 cells assessed as inhibition of cell viability at 10 uM by MTT assay relative to control; type: cell-based, PC-12; conditions: read-out: INH
[2] = Cytotoxicity against human HepG2 cells assessed as inhibition of cell viability at 50 uM by MTT assay relative to control; type: cell-based; conditions: read-out: INH
[3] = Cytotoxicity against rat PC12 cells assessed as inhibition of cell viability at 1 uM by MTT assay relative to control; type: cell-based, PC-12; conditions: read-out: INH
[4] = target: Cholinesterase (Equus caballus, UniProt P81908); assay: Inhibition of equine serum BuChE using butyrylthiocholine chloride as substrate preincubated for 15 mins followed by substrate addition measured every minute by Ellman's method
Sequence of Cholinesterase (P81908 whole entry): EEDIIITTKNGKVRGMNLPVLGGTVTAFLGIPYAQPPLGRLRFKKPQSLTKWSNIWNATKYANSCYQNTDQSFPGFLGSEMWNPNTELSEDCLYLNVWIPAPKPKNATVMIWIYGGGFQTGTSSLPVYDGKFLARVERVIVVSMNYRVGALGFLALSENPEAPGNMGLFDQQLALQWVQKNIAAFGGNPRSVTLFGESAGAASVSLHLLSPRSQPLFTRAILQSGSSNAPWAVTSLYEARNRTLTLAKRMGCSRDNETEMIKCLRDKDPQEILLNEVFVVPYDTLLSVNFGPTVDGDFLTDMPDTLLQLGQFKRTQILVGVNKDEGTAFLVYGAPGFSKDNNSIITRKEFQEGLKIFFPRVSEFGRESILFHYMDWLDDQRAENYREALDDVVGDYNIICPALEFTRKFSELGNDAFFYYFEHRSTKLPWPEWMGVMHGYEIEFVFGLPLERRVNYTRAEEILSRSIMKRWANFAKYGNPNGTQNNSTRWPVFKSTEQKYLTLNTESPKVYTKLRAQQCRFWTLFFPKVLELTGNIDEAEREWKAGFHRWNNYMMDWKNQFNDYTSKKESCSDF

[5] = Cytotoxicity against rat PC12 cells assessed as inhibition of cell viability at 50 uM by MTT assay relative to control; type: cell-based, PC-12; conditions: read-out: INH
[6] = Cytotoxicity against human HepG2 cells assessed as inhibition of cell viability at 10 uM by MTT assay relative to control; type: cell-based; conditions: read-out: INH
[7] = target: Acetylcholinesterase (Electrophorus electricus, UniProt O42275); assay: Inhibition of electric eel AChE using acetylthiocholine chloride as substrate preincubated for 15 mins followed by substrate addition measured every minute by Ellman's method
Sequence of Acetylcholinesterase (O42275 whole entry): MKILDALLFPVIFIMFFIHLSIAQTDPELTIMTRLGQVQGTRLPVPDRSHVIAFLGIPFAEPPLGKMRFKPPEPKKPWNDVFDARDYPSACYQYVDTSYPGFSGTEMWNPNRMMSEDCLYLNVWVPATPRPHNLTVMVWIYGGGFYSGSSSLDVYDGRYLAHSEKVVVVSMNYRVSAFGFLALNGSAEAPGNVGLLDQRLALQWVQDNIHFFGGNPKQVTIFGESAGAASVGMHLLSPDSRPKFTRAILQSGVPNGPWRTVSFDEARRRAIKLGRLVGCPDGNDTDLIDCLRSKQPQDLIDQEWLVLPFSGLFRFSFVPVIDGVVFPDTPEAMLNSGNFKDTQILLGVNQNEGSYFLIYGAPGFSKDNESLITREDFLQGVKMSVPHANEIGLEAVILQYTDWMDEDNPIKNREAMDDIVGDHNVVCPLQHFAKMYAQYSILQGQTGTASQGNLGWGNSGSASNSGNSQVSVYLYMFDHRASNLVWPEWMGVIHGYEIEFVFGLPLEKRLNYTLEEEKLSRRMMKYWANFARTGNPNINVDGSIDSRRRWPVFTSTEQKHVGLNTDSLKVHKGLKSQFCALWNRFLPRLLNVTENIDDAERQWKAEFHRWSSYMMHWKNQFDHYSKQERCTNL

[8] = Cytotoxicity against human HepG2 cells assessed as inhibition of cell viability at 1 uM by MTT assay relative to control; type: cell-based; conditions: read-out: INH
[9] = target: Amyloid-beta precursor protein (Homo sapiens) (UniProt P05067); assay: Inhibition of human self-induced amyloid beta (1 to 42) aggregation at 20 uM after 48 hrs by uranyl acetate staining based TEM analysis
Sequence of Amyloid-beta precursor protein (Homo sapiens) (P05067 whole entry): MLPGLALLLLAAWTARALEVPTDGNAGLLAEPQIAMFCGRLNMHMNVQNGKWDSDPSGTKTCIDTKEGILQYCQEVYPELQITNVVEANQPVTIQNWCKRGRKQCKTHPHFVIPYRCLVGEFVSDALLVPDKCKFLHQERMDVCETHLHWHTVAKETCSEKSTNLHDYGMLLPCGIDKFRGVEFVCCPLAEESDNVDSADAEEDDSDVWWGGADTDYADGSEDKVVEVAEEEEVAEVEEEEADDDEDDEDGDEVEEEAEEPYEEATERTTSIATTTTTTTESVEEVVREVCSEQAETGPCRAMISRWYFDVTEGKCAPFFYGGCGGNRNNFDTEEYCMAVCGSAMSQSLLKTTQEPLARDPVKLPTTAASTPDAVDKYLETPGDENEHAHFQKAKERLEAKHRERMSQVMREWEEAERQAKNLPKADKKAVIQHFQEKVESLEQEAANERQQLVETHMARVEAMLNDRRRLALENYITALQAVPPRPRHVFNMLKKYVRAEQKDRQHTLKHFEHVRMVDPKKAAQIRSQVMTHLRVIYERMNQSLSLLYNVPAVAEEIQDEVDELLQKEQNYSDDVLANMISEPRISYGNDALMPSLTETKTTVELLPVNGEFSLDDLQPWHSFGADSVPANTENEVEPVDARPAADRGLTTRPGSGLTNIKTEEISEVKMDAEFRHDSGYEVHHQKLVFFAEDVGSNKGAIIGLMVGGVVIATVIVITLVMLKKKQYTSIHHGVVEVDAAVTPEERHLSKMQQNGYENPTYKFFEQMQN

[10] = target: Acetylcholinesterase (Electrophorus electricus) (UniProt O42275); assay: Inhibition of electric eel AChE at 50 uM using acetylthiocholine chloride as substrate preincubated for 15 mins followed by substrate addition measured every minute by Ellman's method
Sequence of Acetylcholinesterase (Electrophorus electricus) (O42275 24-633 limits assumed): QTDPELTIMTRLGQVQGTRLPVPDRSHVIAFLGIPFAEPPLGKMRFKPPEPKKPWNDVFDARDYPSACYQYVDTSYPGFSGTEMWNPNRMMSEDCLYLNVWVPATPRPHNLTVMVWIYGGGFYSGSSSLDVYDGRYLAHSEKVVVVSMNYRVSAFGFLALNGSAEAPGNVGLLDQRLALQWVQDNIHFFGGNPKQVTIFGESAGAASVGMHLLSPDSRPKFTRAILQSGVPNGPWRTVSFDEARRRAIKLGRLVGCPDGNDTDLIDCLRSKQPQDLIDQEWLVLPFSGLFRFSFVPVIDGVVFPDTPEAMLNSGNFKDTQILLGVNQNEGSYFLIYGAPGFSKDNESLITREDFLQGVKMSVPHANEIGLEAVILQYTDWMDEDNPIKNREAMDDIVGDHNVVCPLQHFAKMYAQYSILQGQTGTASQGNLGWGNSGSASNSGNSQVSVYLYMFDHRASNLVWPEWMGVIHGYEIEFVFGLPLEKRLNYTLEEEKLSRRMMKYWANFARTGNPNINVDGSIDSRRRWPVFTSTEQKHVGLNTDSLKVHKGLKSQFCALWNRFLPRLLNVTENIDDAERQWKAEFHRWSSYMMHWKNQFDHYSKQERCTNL

[11] = tested on: Mus musculus; assay: Hepatotoxicity in Kunming mouse assessed as histomorphological changes in liver at 106 mg/kg, ig after 48 hrs by H and E staining based assay; type: toxicity, organism-based; conditions: in vivo, po
[12] = tested on: Mus musculus; assay: Hepatotoxicity in Kunming mouse assessed as inflammatory cell infiltration in liver at 35 mg/kg, ig cotreated with THA after 48 hrs by H and E staining based assay; type: toxicity, organism-based; conditions: in vivo, po
[13] = tested on: Mus musculus; assay: Hepatotoxicity in Kunming mouse assessed as serum ASAT level at 106 mg/kg, ig after 48 hrs by colorimetric method (reference value: 101.5 +/- 22.3 U/L); type: toxicity, organism-based; conditions: in vivo, po
[14] = tested on: Mus musculus; assay: Hepatotoxicity in Kunming mouse assessed as serum ASAT level at 106 mg/kg, ig cotreated with THA after 48 hrs by colorimetric method (reference value: 101.5 +/- 22.3 U/L); type: toxicity, organism-based; conditions: in vivo, po
[15] = target: Cholinesterase (Equus caballus) (UniProt P81908); assay: Inhibition of equine serum BuChE at 50 uM using butyrylthiocholine chloride as substrate preincubated for 15 mins followed by substrate addition measured every minute by Ellman's method
Sequence of Cholinesterase (Equus caballus) (P81908 whole entry): as the sequence (P81908 whole entry) above

[16] = tested on: Mus musculus; assay: Hepatotoxicity in Kunming mouse assessed as serum ALT level at 106 mg/kg, ig cotreated with THA after 48 hrs by colorimetric method (reference value: 42.7 +/- 6.3 U/L); type: toxicity, organism-based; conditions: in vivo, po
[17] = tested on: Mus musculus; assay: Hepatotoxicity in Kunming mouse assessed as serum ALT level at 106 mg/kg, ig after 48 hrs by colorimetric method (reference value: 42.7 +/- 6.3 U/L); type: toxicity, organism-based; conditions: in vivo, po
[18] = tested on: Mus musculus; assay: Hepatotoxicity in Kunming mouse assessed as increase in serum ALT level at 106 mg/kg, ig after 48 hrs by colorimetric method relative to control; type: toxicity, organism-based; conditions: in vivo, po
[19] = tested on: Mus musculus; assay: Effect on spatial memory performance in ICR mouse model of scopalamine-induced memory impairment assessed as swimming speed at 20 umol equiv/kg, po pretreated for 30 mins followed by scopalamine treatment measured for 90 secs by Morris water maze test; type: ADME, organism-based; conditions: 0.025 h
[20] = tested on: L02; assay: Induction of apoptosis in human HL7702 cells at 10 uM in presence of PI3K inhibitor LY294002 by FITC staining based flow cytometry relative to control; type: cell-based; conditions: l02, 10 µM
[21] = tested on: Mus musculus; assay: Hepatotoxicity in Kunming mouse assessed as increase in serum ASAT level at 106 mg/kg, ig after 48 hrs by colorimetric method relative to control; type: toxicity, organism-based; conditions: in vivo, po
[22] = tested on: L02; assay: Cytotoxicity against human HL7702 cells assessed as reduction in cell viability at 1 to 10 uM by MTT assay; type: cell-based; conditions: l02, 10 µM
[23] = tested on: Mus musculus; assay: Cognition enhancing effect in ICR mouse model of scopalamine-induced memory impairment assessed as improvement in target quadrant preference at 20 umol equiv/kg, po pretreated for 30 mins followed by scopalamine treatment measured on day 15 by Morris water maze test; type: functional, organism-based
[24] = tested on: Mus musculus; assay: Effect on spatial memory performance in ICR mouse model of scopalamine-induced memory impairment assessed as total distance travelled at 20 umol equiv/kg, po pretreated for 30 mins followed by scopalamine treatment measured for 90 secs by Morris water maze test; type: ADME, organism-based; conditions: 0.025 h
[25] = target: Acetylcholinesterase (Electrophorus electricus) (UniProt O42275); assay: Mixed-type inhibition of electric eel AChE at 25 to 100 nM using acetylthiocholine chloride as substrate preincubated for 15 mins followed by substrate addition by Lineweaver-Burk plot analysis

## COC(=O)c1cc(OC)c2c(c1-c1c(C(=O)NCCCCCCNc3c4c(nc5ccccc35)CCCC4)cc(OC)c3c1OCO3)OCO2
[1]
  cytotoxicity at 10 µM: < 5%
[2]
  cytotoxicity at 50 µM: 34.4%
[3]
  cytotoxicity at 1 µM: 5.26%
[4]
  IC50: 4.02 nM
[5]
  cytotoxicity at 50 µM: 27.3%
[6]
  cytotoxicity at 10 µM: < 5%
[7]
  IC50: 616 nM
[8]
  cytotoxicity at 1 µM: < 5%

## COC(=O)c1cc(OC)c2c(c1-c1c(C(=O)NCCCCCCCCCCCCNc3c4c(nc5ccccc35)CCCC4)cc(OC)c3c1OCO3)OCO2
[1]
  cytotoxicity at 10 µM: < 5%
[2]
  cytotoxicity at 50 µM: 46.1%
[3]
  cytotoxicity at 1 µM: < 5%
[4]
  IC50: 35.3 nM
[5]
  cytotoxicity at 50 µM: 7.76%
[6]
  cytotoxicity at 10 µM: 13.8%
[7]
  IC50: 52.1 nM
[8]
  cytotoxicity at 1 µM: 7.35%

## COc1cc(/C=C/C(=O)CC(=O)/C=C/c2ccc(O)c(OC)c2)ccc1O
[9]
  inhibition: Active

## COC(=O)c1cc(OC)c2c(c1-c1c(C(=O)OC)cc(OC)c3c1OCO3)OCO2 [BIFENDATE]
[1]
  cytotoxicity at 10 µM: < 5%
[10]
  inhibition: inactive
[2]
  cytotoxicity at 50 µM: 11.6%
[3]
  cytotoxicity at 1 µM: < 5%
[4]
  IC50: > 50000 nM
[11]
  Activity: Non-Toxic
[12]
  Activity: Non-Toxic
[5]
  cytotoxicity at 50 µM: 7.21%
[13]
  Activity: 105 U/L
[14]
  Activity: 110 U/L
[15]
  inhibition: inactive
[6]
  cytotoxicity at 10 µM: 8.45%
[16]
  Activity: 41.9 U/L
[17]
  Activity: 39.3 U/L
[7]
  IC50: > 50000 nM
[8]
  cytotoxicity at 1 µM: < 5%

## COC(=O)c1cc(OC)c2c(c1-c1c(C(=O)NCCCCCCCCCCNc3c4c(nc5ccccc35)CCCC4)cc(OC)c3c1OCO3)OCO2
[9]
  inhibition: Active
[1]
  cytotoxicity at 10 µM: < 5%
[2]
  cytotoxicity at 50 µM: 23.1%
[3]
  cytotoxicity at 1 µM: < 5%
[18]
  fold change (FC): 1.1
[4]
  IC50: 8.63 nM
[19]
  Activity: Non-Toxic
[20]
  Activity: 14.1%
[21]
  fold change (FC): 1.1
[11]
  Activity: Non-Toxic
[22]
  Activity: Non-Toxic
[5]
  cytotoxicity at 50 µM: 7.84%
[23]
  Activity: Active
[6]
  cytotoxicity at 10 µM: 10.8%
[24]
  Activity: Non-Toxic
[7]
  IC50: 27.3 nM
[25]
  inhibition: Active
[8]
  cytotoxicity at 1 µM: 6.71%

## COC(=O)c1cc(OC)c2c(c1-c1c(C(=O)NCCCCCCCCNc3c4c(nc5ccccc35)CCCC4)cc(OC)c3c1OCO3)OCO2
[1]
  cytotoxicity at 10 µM: < 5%
[2]
  cytotoxicity at 50 µM: 51.9%
[3]
  cytotoxicity at 1 µM: < 5%
[4]
  IC50: 6.5 nM
[5]
  cytotoxicity at 50 µM: 38.9%
[6]
  cytotoxicity at 10 µM: 9.53%
[7]
  IC50: 945 nM
[8]
  cytotoxicity at 1 µM: 5.81%

## COC(=O)c1cc(OC)c2c(c1-c1c(C(=O)NCCCCNc3c4c(nc5ccccc35)CCCC4)cc(OC)c3c1OCO3)OCO2
[1]
  cytotoxicity at 10 µM: < 5%
[2]
  cytotoxicity at 50 µM: 19.5%
[3]
  cytotoxicity at 1 µM: < 5%
[4]
  IC50: 75.5 nM
[5]
  cytotoxicity at 50 µM: 19.3%
[6]
  cytotoxicity at 10 µM: 11.9%
[7]
  IC50: 923 nM
[8]
  cytotoxicity at 1 µM: < 5%
